Tests used:
[1] = tested on: HSC-2; test: Cytotoxicity against human HSC2 cells after 48 hrs by MTT assay; type: functional; conditions: HSC-2, 48 h
[2] = Cytotoxicity against human HPC cells after 48 hrs by MTT assay; type: cell-based
[3] = Cytotoxicity against human HPLF cells after 48 hrs by MTT assay; type: cell-based
[4] = Cytotoxicity against human HGF cells after 48 hrs by MTT assay; type: cell-based
[5] = tested on: HL-60; test: Cytotoxicity against human HL60 cells after 48 hrs by MTT assay; type: functional; conditions: HL-60, 48 h
[6] = tested on: HSC-3; test: Cytotoxicity against human HSC3 cells after 48 hrs by MTT assay; type: functional; conditions: HSC-3, 48 h
[7] = tested on: HSC-4; test: Cytotoxicity against human HSC4 cells after 48 hrs by MTT assay; type: functional; conditions: HSC-4, 48 h

Structure (SMILES) | CC50 [1] [µM] | CC50 at 48 h [2] [µM] | CC50 at 48 h [3] [µM] | CC50 at 48 h [4] [µM] | CC50 [5] [µM] | CC50 [6] [µM] | CC50 [7] [µM]
O=C(O[C@@H]1O[C@@H]2COC(=O)c3cc(O)c(O)c(O)c3-c3c(cc(O)c(O)c3O)C(=O)O[C@H]2[C@H](OC(=O)c2cc(O)c(O)c(O)c2)[C@H]1OC(=O)c1cc(O)c(O)c(O)c1Oc1cc2c(c(O)c1O)Oc1cc(cc(O)c1O)C(=O)O[C@@H]1O[C@@H]3COC(=O)c4cc(O)c(O)c(O)c4-c4c(cc(O)c(O)c4O)C(=O)O[C@H]3[C@H](OC(=O)c3cc(O)c(O)c(O)c3)[C@H]1OC2=O)c1cc(O)c(O)c(O)c1 [HIRTELLIN B] | 91.7 | 78.5 | 293 | 177 | 8.71 | 99.3 | 74
O=C(O)c1cc(O)c(O)c(Oc2c(C(=O)O[C@H]3[C@H](OC(=O)c4cc(O)c(O)c(O)c4)O[C@@H]4COC(=O)c5cc(O)c(O)c(O)c5-c5c(cc(O)c(O)c5O)C(=O)O[C@H]4[C@@H]3OC(=O)c3cc(O)c(O)c(O)c3O)cc(O)c(O)c2O)c1 [REMURIN A] | 31.3 | 170 | 373 | 218 | 18.4 | 51 | 48
O=C(O[C@@H]1O[C@@H]2COC(=O)c3cc(O)c(O)c(O)c3-c3c(cc(O)c(O)c3O)C(=O)O[C@H]2[C@H](OC(=O)c2cc(O)c(O)c(O)c2)[C@H]1OC(=O)c1cc(O)c(O)c(O)c1Oc1cc2c(c(O)c1O)Oc1cc(cc(O)c1O)C(=O)O[C@@H]1O[C@H](CO)[C@@H](O)[C@H](OC(=O)c3cc(O)c(O)c(O)c3)[C@H]1OC2=O)c1cc(O)c(O)c(O)c1 [NILOTININ D8] | 32.3 | 278 | 358 | 318 | 22.9 | 48.3 | 54.3
O=C1O[C@@H]2O[C@@H]3COC(=O)c4cc(O)c(O)c(O)c4-c4c(cc(O)c(O)c4O)C(=O)O[C@H]3[C@H](OC(=O)c3cc(O)c(O)c(O)c3)[C@H]2OC(=O)c2cc(Oc3c(C(=O)O)cc(O)c(O)c3O)c(O)c(O)c2Oc2cc1cc(O)c2O [NILOTININ M4] | 35 | 263 | 361 | 325 | 30.6 | 57 | 62
O=C1O[C@@H]2O[C@@H]3COC(=O)c4cc(O)c(O)c(O)c4-c4c(cc(O)c(O)c4O)C(=O)O[C@H]3[C@H](OC(=O)c3cc(O)c(O)c(O)c3)[C@H]2OC(=O)c2cc(Oc3c(C(=O)O[C@@H]4[C@@H](OC(=O)c5cc(O)c(O)c(O)c5)[C@@H]5OC(=O)c6cc(O)c(O)c(O)c6-c6c(cc(O)c(O)c6O)C(=O)OC[C@H]5O[C@H]4O)cc(O)c(O)c3O)c(O)c(O)c2Oc2cc1cc(O)c2O [TAMARIXININ A] | 29.3 | 199 | 353 | 274 | 30.8 | 54.3 | 59.3
O=C(O)c1cc(O)c(O)c(Oc2c(C(=O)O[C@@H]3[C@@H](OC(=O)c4cc(O)c(O)c(O)c4O)[C@@H]4OC(=O)c5cc(O)c(O)c(O)c5-c5c(cc(O)c(O)c5O)C(=O)OC[C@H]4O[C@H]3O)cc(O)c(O)c2O)c1 [REMURIN B] | 32.3 | 255 | 375 | 337 | 41.7 | 63.3 | 60

Reference: ChEMBL document CHEMBL1157132, “Hydrolyzable tannins of tamaricaceous plants. III. Hellinoyl- and macrocyclic-type ellagitannins from Tamarix nilotica” (J Nat Prod, 2010)
